Experimental findings from ChEMBL document CHEMBL5241134, “Discovery of orally bioavailable inhibitors of MALT1 with in vivo activity for psoriasis” (Bioorg Med Chem Lett, 2023) are described below.

In series [1] the target is T1, Mucosa-associated lymphoid tissue lymphoma translocation protein 1 (Homo sapiens, UniProt Q9UDY8).
T1 sequence (Q9UDY8 whole entry): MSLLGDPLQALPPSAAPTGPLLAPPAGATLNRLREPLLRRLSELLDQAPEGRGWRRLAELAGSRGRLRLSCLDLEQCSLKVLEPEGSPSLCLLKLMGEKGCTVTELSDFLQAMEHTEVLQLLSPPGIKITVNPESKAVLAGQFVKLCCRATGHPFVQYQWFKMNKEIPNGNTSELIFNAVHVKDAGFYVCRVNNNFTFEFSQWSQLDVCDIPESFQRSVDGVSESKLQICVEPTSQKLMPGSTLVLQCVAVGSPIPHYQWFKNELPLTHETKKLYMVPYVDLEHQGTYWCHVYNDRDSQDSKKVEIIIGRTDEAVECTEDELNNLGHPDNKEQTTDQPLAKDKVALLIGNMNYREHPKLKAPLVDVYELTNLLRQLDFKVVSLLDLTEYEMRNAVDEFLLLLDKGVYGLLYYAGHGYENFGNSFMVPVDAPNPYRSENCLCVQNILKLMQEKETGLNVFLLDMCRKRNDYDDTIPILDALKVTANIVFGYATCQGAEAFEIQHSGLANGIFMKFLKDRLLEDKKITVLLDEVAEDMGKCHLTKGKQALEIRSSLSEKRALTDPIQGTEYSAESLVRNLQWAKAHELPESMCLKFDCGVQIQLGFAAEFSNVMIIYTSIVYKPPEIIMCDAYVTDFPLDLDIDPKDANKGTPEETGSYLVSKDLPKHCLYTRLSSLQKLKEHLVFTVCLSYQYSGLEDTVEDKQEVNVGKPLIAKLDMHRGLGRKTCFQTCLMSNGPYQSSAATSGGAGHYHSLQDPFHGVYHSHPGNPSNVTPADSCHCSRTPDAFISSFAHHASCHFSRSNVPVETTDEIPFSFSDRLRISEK
In words: Inhibition of MALT1 (unknown origin).

Series [2] in a line: Inhibition of IL-2 production in PMA/ionomycin stimulated human Jurkat T cells. In kind it is functional, cell-based.
A short description of series [3]: Apparent permeability of the compound in human Caco-2 cells. In kind it is ADME, cell-based. Background: Passage across Caco-2 layers is used to estimate intestinal permeability.
The nature of series [4]: Drug concentration in BALB/cAnNCrlCr mouse at 1 mg/kg, iv administered as single dose. In kind it is ADME, organism-based. Conditions: in vivo.
Series [5] in a line: AUC (0 to infinity) in BALB/cAnNCrlCr mouse at 1 mg/kg, iv administered as single dose. In kind it is ADME, organism-based. Set-up: dose 1 mg/kg, route iv. Conditions: in vivo.
The nature of series [6]: Half-life in BALB/cAnNCrlCr mouse at 1 mg/kg, iv administered as single dose. In kind it is ADME, organism-based. Particulars: in vivo.
Series [7] can be described thus: Total clearance in BALB/cAnNCrlCr mouse at 1 mg/kg, iv administered as single dose. In kind it is ADME, organism-based. Particulars: in vivo.
The nature of series [8]: Cmax in BALB/cAnNCrlCr mouse at 2 mg/kg, po administered as single dose. In kind it is ADME, organism-based. More on the design: dose 2 mg/kg, route po. Particulars: in vivo.
Series [9] can be described thus: AUC (0 to infinity) in BALB/cAnNCrlCr mouse at 2 mg/kg, po administered as single dose. In kind it is ADME, organism-based. More on the design: dose 2 mg/kg, route po. Conditions: in vivo.
The nature of series [10]: Half-life in BALB/cAnNCrlCr mouse at 2 mg/kg, po administered as single dose. In kind it is ADME, organism-based. Particulars: in vivo.
A short description of series [11]: Tmax in BALB/cAnNCrlCr mouse at 2 mg/kg, po administered as single dose. Conditions: in vivo. In kind it is ADME, organism-based.
Series [12] is described as follows: Oral bioavailability in BALB/cAnNCrlCr mouse at 2 mg/kg administered as single dose. Particulars: in vivo. In kind it is ADME, organism-based.

As for `N#C/N=C(\N)NCc1cc(-c2ccc(Cl)cc2)n(-c2ccc(Cl)cc2)n1`, in [1], the IC50 amounted to 1.59 µM.
In the case of `N/C(=N\S(=O)(=O)c1cccc(F)c1)NCc1cc(-c2ccc(Cl)cc2)n(-c2ccc(Cl)cc2)n1`, the IC50 in [2] is 1.35 µM; in [1], 0.056 µM.
In series [1], `NC(=O)NCc1cc(-c2ccc(Cl)cc2)n(-c2ccc(Cl)cc2)n1` gave an IC50 of 1.43 µM.
On the same count and under the same terms, the result for `N/C(=N\S(=O)(=O)c1ccncc1)NCc1cc(-c2ccc(Cl)cc2)n(-c2ccc(Cl)cc2)n1` reads 0.562 µM; that for `O=C(NCCc1ccccc1)c1cc(-c2ccc(Cl)cc2)n(-c2ccc(Cl)cc2)n1`, over 25 µM; that for `CC(=O)N[C@H](C(=O)NCc1cc(-c2ccc(Cl)cc2)n(-c2ccc(Cl)cc2)n1)C(C)C`, 2.06 µM.
On the same count and under the same terms, the same measure for `CCN/C(=N\S(C)(=O)=O)NCc1cc(-c2ccc(Cl)cc2)n(-c2ccc(Cl)cc2)n1`: 0.848 µM.
Turning to `CS(=O)(=O)/N=C(/NCc1cc(-c2ccc(Cl)cc2)n(-c2ccc(Cl)cc2)n1)NCC1CC1`, the IC50 in series [2] turned out to be 1.64 µM; in series [1] it was 0.053 µM.
The like results for `CS(=O)(=O)/N=C(\NCc1ccccc1)NCc1cc(-c2ccc(Cl)cc2)n(-c2ccc(Cl)cc2)n1` were, in that order, 1.09 µM and 0.031 µM.
In the case of `CS(=O)(=O)/N=C(/NCc1cc(-c2ccc(Cl)cc2)n(-c2ccc(Cl)cc2)n1)N[C@H](CO)c1ccccc1`, in series [1], it took 0.045 µM to reach half-maximal inhibition (IC50).
The same measure, in the same setting: the same measure for `O=C(Cc1ccccc1)NCc1cc(-c2ccc(Cl)cc2)n(-c2ccc(Cl)cc2)n1`: 0.188 µM; for `N/C(=N\S(=O)(=O)C1CC1)NCc1cc(-c2ccc(Cl)cc2)n(-c2ccc(Cl)cc2)n1`: 0.258 µM.
On to `NC(C(=O)NCc1cc(-c2ccc(Cl)cc2)n(-c2ccc(Cl)cc2)n1)c1ccccn1` (configuration not stated), for which, in series [1], half-maximal inhibition (IC50) was put at 0.227 µM.
`CS(=O)(=O)/N=C(\N)NCc1cc(-c2ccc(Cl)cc2)n(-c2ccc(Cl)cc2)n1` had an IC50 in [1] of 0.401 µM.
As for `N[C@H](C(=O)NCc1cc(-c2ccc(Cl)cc2)n(-c2ccc(Cl)cc2)n1)c1ccccc1`, the IC50 in [2] came to 2.66 µM; in series [1], 0.053 µM.
Regarding `CN(C)[C@@H](CO)CNC(=O)c1cc(-c2ccc(Cl)cc2)n(-c2ccc(Cl)cc2)n1`, the IC50 in series [1] came out at 0.69 µM.
For the compound `CN(C)[C@@H](CO)C(=O)NCc1cc(-c2ccc(Cl)cc2)n(-c2ccc(Cl)cc2)n1`, the IC50 in [1] is 4.02 µM.
Regarding `O=C(NCc1cc(-c2ccc(Cl)cc2)n(-c2ccc(Cl)cc2)n1)C(O)c1ccccc1` (configuration not stated), in series [1], the IC50 was determined as 0.159 µM.
Turning to `N/C(=N\S(=O)(=O)c1cccs1)NCc1cc(-c2ccc(Cl)cc2)n(-c2ccc(Cl)cc2)n1`, the values for the IC50 in series [2] and in series [1] were 1.29 µM and 0.249 µM, respectively.
In [1], `N/C(=N\S(=O)(=O)C1CCCCC1)NCc1cc(-c2ccc(Cl)cc2)n(-c2ccc(Cl)cc2)n1` yielded an IC50 of 0.762 µM.
`CS(=O)(=O)N[C@H](C(=O)NCc1cc(-c2ccc(Cl)cc2)n(-c2ccc(Cl)cc2)n1)c1ccccc1`: the IC50 in [2] was over 10 µM; in series [1] it was 0.06 µM.
For the compound `CC(=O)NC(C(=O)NCc1cc(-c2ccc(Cl)cc2)n(-c2ccc(Cl)cc2)n1)c1ccccn1` (configuration not stated), the IC50 in series [2] worked out at 4.17 µM; in series [1], 0.056 µM.
With `CN(C)CC(=O)NCc1cc(-c2ccc(Cl)cc2)n(-c2ccc(Cl)cc2)n1`, in [1], the IC50 worked out at 3.88 µM.
On the same count and under the same terms, the result for `CS(=O)(=O)/N=C(\NCc1ccccn1)NCc1cc(-c2ccc(Cl)cc2)n(-c2ccc(Cl)cc2)n1` reads 0.034 µM; that for `Cn1ccc(S(=O)(=O)/N=C(\N)NCc2cc(-c3ccc(Cl)cc3)n(-c3ccc(Cl)cc3)n2)n1`, 0.51 µM.
The same measure, in the same setting: the result for `CC(=O)/N=C(\N)NCc1cc(-c2ccc(Cl)cc2)n(-c2ccc(Cl)cc2)n1` reads 1.54 µM.
As to `N/C(=N\S(=O)(=O)c1ccccc1)NCc1cc(-c2ccc(Cl)cc2)n(-c2ccc(Cl)cc2)n1`, the values for the IC50 in series [2] and in [1] were 1.4 µM and 0.093 µM, respectively. The apparent permeability (Papp) in [3] came to 3 ×10⁻⁶ cm/s. In addition, in series [4], the Drug uptake came to 1920 ng/mL. Also, the AUC(0-inf) in series [5] was found to be 5570 ng·h/mL; in series [9], 4450 ng·h/mL. Also, the half-life was 3.37 h in series [6] and 4.82 h in [10]. Further, the clearance in series [7] is 3 mL/min/kg. The Cmax in [8] was determined as 560 ng/mL. Further, the Tmax in [11] stood at 2 h. In [12], this compound registered a bioavailability of 39.9%.
As to `CC(=O)N[C@H](C(=O)NCc1cc(-c2ccc(Cl)cc2)n(-c2ccc(Cl)cc2)n1)c1ccccc1`, the IC50 in series [2] was found to be 5.02 µM; in series [1], 0.042 µM.
In [1], `O=C(CCc1ccccc1)NCc1cc(-c2ccc(Cl)cc2)n(-c2ccc(Cl)cc2)n1` returned a 50% inhibitory concentration (IC50) of 0.262 µM.
With `COc1cccc(S(=O)(=O)/N=C(\N)NCc2cc(-c3ccc(Cl)cc3)n(-c3ccc(Cl)cc3)n2)c1`, the IC50 stood at 2.06 µM in series [2] and 0.06 µM in series [1].
Regarding `N/C(=N\S(=O)(=O)Cc1ccccc1)NCc1cc(-c2ccc(Cl)cc2)n(-c2ccc(Cl)cc2)n1`, the IC50 in series [1] was found to be 0.774 µM.
As to `CC(C)[C@H](N)C(=O)NCc1cc(-c2ccc(Cl)cc2)n(-c2ccc(Cl)cc2)n1`, the IC50 in [1] worked out at 1.85 µM.
As for `CC(=O)NCc1cc(-c2ccc(Cl)cc2)n(-c2ccc(Cl)cc2)n1`, half-maximal inhibition in series [1] (IC50) required 1.77 µM.
Same read-out and setting: the same measure for `CS(=O)(=O)NCc1cc(-c2ccc(Cl)cc2)n(-c2ccc(Cl)cc2)n1`: 2.19 µM.
On the same count and under the same terms, the result for `NC(=O)/N=C(\N)NCc1cc(-c2ccc(Cl)cc2)n(-c2ccc(Cl)cc2)n1` reads 1.11 µM.
As for `CN(C)[C@H](C(=O)NCc1cc(-c2ccc(Cl)cc2)n(-c2ccc(Cl)cc2)n1)c1ccccc1`, the IC50 in [2] came to 1.73 µM; in [1] it was 0.053 µM.
`O=C(NCc1cc(-c2ccc(Cl)cc2)n(-c2ccc(Cl)cc2)n1)c1ccccc1` returned an IC50 in series [1] of over 25 µM.
In turn, `N[C@@H](C(=O)NCc1cc(-c2ccc(Cl)cc2)n(-c2ccc(Cl)cc2)n1)c1ccccc1` showed an IC50 in [1] of 0.368 µM.
Still for that read-out and setting: the result for `CS(=O)(=O)/N=C(/NCc1cc(-c2ccc(Cl)cc2)n(-c2ccc(Cl)cc2)n1)NCc1cccs1` reads 0.026 µM.
Turning to `N[C@@H](Cc1ccccc1)C(=O)NCc1cc(-c2ccc(Cl)cc2)n(-c2ccc(Cl)cc2)n1`, in [1], the IC50 amounted to 0.28 µM.
For the compound `CS(=O)(=O)/N=C(\NCc1cccc(Cl)c1)NCc1cc(-c2ccc(Cl)cc2)n(-c2ccc(Cl)cc2)n1`, the half-inhibitory concentration (IC50) in series [1] came to 0.02 µM. Against the preceding compound, the IC50 is about 14-fold lower.

The IC50 is the concentration that inhibits the measured activity by half. The low end stands for inhibition by little substance, the high end for a need for much substance. For orientation: Papp means the rate of passage across a membrane or cell layer, normalised by area and donor concentration. Usually AUC(0-inf) stands for the area under the concentration-time curve extrapolated to infinity. A higher AUC(0-inf) goes with high exposure. As usually defined, the half-life is the time needed for the level to fall by half in the phase considered. A higher half-life goes with slow decline. The term clearance denotes the rate of elimination divided by the concentration. Usually Cmax stands for the highest concentration seen after dosing. For orientation: Tmax means the time from dosing to the highest level. Usually bioavailability stands for dose-corrected exposure relative to a reference, in per cent. A low value points to poor availability.
